Several values for one entry are separate records, joined by “and”; a condition that tells them apart may be missing. Equal entries are not always repeated.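 Following 48 hours of exposure in 96-well plates, responses at five concentrations were used to interpolate endpoints linearly. Here, GI50 denotes the concentration required for 50% inhibition of growth. TGI: total growth inhibition.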
Columns and labels:
Test in all cases: NCI tumour cell line growth inhibition, 48 h
[1] = system: NCI/ADR-RES ovarian
[2] = system: TK-10 renal
[3] = system: MDA-MB-231 breast
[4] = system: IGROV1 ovarian
[5] = system: LOX IMVI melanoma
[6] = system: 786-0 renal
[7] = system: UACC-257 melanoma
[8] = system: KM12 colon
[9] = system: U251 CNS
[10] = system: SNB-75 CNS

Compound	GI50 [1]	TGI [1]	GI50 [2]	TGI [2]	GI50 [3]	GI50 [4]	TGI [4]	GI50 [5]	TGI [5]	GI50 [6]	TGI [6]	GI50 [7]	TGI [7]	GI50 [8]	TGI [8]	GI50 [9]	TGI [9]	GI50 [10]	TGI [3]	TGI [10]
CC1=CC(=C(c2ccc(N)cc2)c2ccc(N)cc2)C=CC1=N	9.31 µM and 25.7 µM	46.6 µM and 61.9 µM and > 100 µM	2.99 µM and 4.98 µM	15.6 µM and 50.2 µM and 19.5 µM	2330 nM and 2870 nM	4060 nM and 5720 nM	35.9 µM and > 57.7 µM and 35.1 µM	1380 nM and 3710 nM	5.5 µM and 6.81 µM and 15 µM	1640 nM and 8260 nM	6.53 µM and 26.1 µM and 31.7 µM	2.4 µM and 3.1 µM	14.4 µM and 19 µM and 10.7 µM	557 nM and 2720 nM	6.54 µM and 7.11 µM and 10.1 µM	316 nM and 455 nM and 538 nM	5.38 µM and > 36 µM and 13 µM	428 nM and 455 nM and 2310 nM		
Cc1ccccc1-n1ncc(C(=O)c2ccccc2)c1N	> 25 µM	> 25 µM	> 25 µM	> 25 µM	> 25000 nM	> 25000 nM	> 25 µM	> 25000 nM	> 25 µM	> 25000 nM	> 25 µM	> 25 µM	> 25 µM	> 25000 nM	> 25 µM	> 25000 nM	> 25 µM	> 9300 nM	> 25 µM	> 25 µM
CC1(C)CCC2=C(O1)c1ccccc1C(=O)C2=O	0.445 µM and 0.481 µM	2.69 µM and 1.8 µM	1.83 µM	3.34 µM and 4.56 µM	2010 nM	1800 nM and 1780 nM	3.55 µM and 3.39 µM	330 nM and 309 nM	1.31 µM and 0.934 µM	1990 nM	3.94 µM and 2.68 µM	1.56 µM	3.05 µM and 0.429 µM	1700 nM	3.38 µM and 2.13 µM	1490 nM	2.95 µM and 1.13 µM	1640 nM	5.55 µM and 1.67 µM	3.01 µM and 1.35 µM
Cn1cc(C2=C(c3cn(C)c4c([N+](=O)[O-])cccc34)C(=O)NC2=O)c2ccccc21	> 25 µM	> 25 µM	> 25 µM	> 25 µM	> 25000 nM	> 25000 nM	> 25 µM	> 25000 nM	> 25 µM	> 25000 nM	> 25 µM	> 25 µM	> 25 µM	> 25000 nM	> 25 µM	> 25000 nM	> 25 µM	> 25000 nM	> 25 µM	> 25 µM
O=C1C(=O)c2c(nc3ccc(Br)cn23)-c2ccccc21	0.699 µM	3.87 µM	2.28 µM	3.78 µM	465 nM	1050 nM	2.74 µM	242 nM	0.689 µM	1850 nM	3.36 µM	0.747 µM	2.09 µM	1550 nM	3.19 µM	588 nM	1.87 µM	738 nM	2.86 µM	2.37 µM
COC(=O)[C@]12CC[C@@H](C)[C@H](C)[C@@H]1C1=CC[C@@H]3[C@@]4(C)C(C=O)=C[C@@](C)(COC(C)=O)C4=CC[C@@]3(C)[C@]1(C)CC2	5.35 µM	18.9 µM	9.31 µM	21.6 µM	5740 nM	5510 nM	22.7 µM	3300 nM	12.7 µM	3500 nM	15 µM	4.19 µM	17.2 µM	3490 nM	14.9 µM	3370 nM	13.9 µM	2910 nM	23.5 µM	19.2 µM
Clc1cccc(Cl)c1C1CSc2ccccc2N=C1c1ccccc1 (stereo not drawn)	4.14 µM	32 µM	3.69 µM	9.27 µM	2950 nM	3130 nM	11.8 µM	1750 nM	4.03 µM	10700 nM	23 µM	13.5 µM	27 µM	2150 nM	4.69 µM	2110 nM	4.54 µM	2530 nM	14.1 µM	17.2 µM
COc1ccc(C(SCC(N)C(=O)O)(c2ccccc2)c2ccccc2)cc1 (stereo not drawn)	2.12 µM	33.7 µM	20.6 µM	> 100 µM	230 nM	443 nM	> 82.3 µM	668 nM	25.7 µM	209 nM		26.3 µM	> 100 µM	239 nM	21.3 µM	49.7 nM	> 57 µM	447 nM	4.72 µM	88.1 µM
NC(=O)c1ccc(NN=O)nc1		> 100 µM		> 100 µM			> 100 µM	> 100000 nM	> 100 µM		> 100 µM		> 100 µM		> 100 µM		> 100 µM		> 100 µM	> 100 µM
COc1ccc2c(c1)[n+](=O)c(C(=O)c1ccco1)c(C(F)(F)F)n2[O-]	2 µM	6.57 µM	8.56 µM	60.4 µM	3010 nM	2570 nM	20.4 µM	1190 nM	3.59 µM	3830 nM	54.1 µM	1.44 µM	4.83 µM	4480 nM	32.6 µM	2040 nM	8.67 µM	3830 nM	13.2 µM	25.6 µM
CN(C)CCNC(=O)C(C)(C)Oc1ccc(C(=O)c2ccc(Cl)cc2)cc1Cl		26.1 µM		23.7 µM	2250 nM		25.3 µM	39.2 nM	20.1 µM	3370 nM	13.6 µM	3.11 µM	7.79 µM and 4.84 µM		23 µM		20 µM	9710 nM	4.93 µM and 23.6 µM	24.8 µM
CN(Cc1cc(Br)cc(Br)c1O)Cc1cc(Br)cc(Br)c1O	1.83 µM	12.6 µM	4.26 µM	20.4 µM	3260 nM	1560 nM	18.1 µM	1140 nM	17.4 µM	1420 nM	14.6 µM	2.44 µM	11.5 µM	3810 nM	16.4 µM	689 nM	13.3 µM	12900 nM	19.6 µM	49.3 µM
O=CNc1ncn[nH]1		> 100 µM		> 100 µM			> 100 µM		> 100 µM		> 100 µM		> 100 µM		> 100 µM		> 100 µM		> 100 µM	> 100 µM
C/C(=C\CCc1ccoc1)CC/C=C(\C)CCCN1CCOCC1	12.3 µM	27.5 µM	11 µM	23.8 µM	2900 nM	15400 nM	36.8 µM	6910 nM	20.7 µM	1830 nM	4.18 µM	9.17 µM	21.2 µM	4110 nM	16.1 µM	6290 nM	19.1 µM	3150 nM	12.2 µM	16.3 µM
O=C1Nc2c(C(F)(F)F)cccc2[C@@]1(c1ccc(O)cc1)c1ccc(OC(F)(F)F)cc1	< 0.01 µM	< 0.0105 µM	< 0.01 µM	< 0.01 µM	222 nM	< 10 nM	0.0417 µM	< 10 nM	< 0.0137 µM	26.5 nM	1.21 µM	0.938 µM	20.1 µM	< 14.3 nM	3.28 µM	319 nM	20.1 µM	< 10 nM	18.2 µM	< 0.0147 µM
Clc1ccc2c(c1)N(c1ncnc3ccc(-c4cnc5[nH]ccc5c4)cc13)CC2	1.99 µM	69 µM	1.29 µM	14.5 µM	2010 nM	304 nM	2.27 µM	734 nM	10.3 µM	1560 nM	14.5 µM	14.8 µM	63.2 µM	1240 nM	18.6 µM	2510 nM	10.9 µM	776 nM	19.3 µM	21.1 µM
Cc1ccc(C(SCC(N)C(=O)O)(c2ccc(C)cc2)c2ccc(C)cc2)cc1 (stereo not drawn)	15 µM	53.7 µM	8.31 µM	22.6 µM	1930 nM	10300 nM	29.5 µM	7160 nM	20.2 µM	4930 nM	30.1 µM	6.18 µM	26.7 µM	2260 nM	12.4 µM	1710 nM	16.8 µM	6690 nM	7.77 µM	> 38.2 µM
CNC(=O)OCc1c2ccncc2c(C)c2c1[nH]c1ccccc12		2.3 µM		0.968 µM			1.3 µM		0.584 µM		14.2 µM		2.05 µM		5.19 µM		1.8 µM		2.87 µM	1.17 µM
COc1ccc2c(c1)[nH]c(=O)c1c3cc(OC)ccc3cn21	< 0.01 µM	0.02 µM	0.374 µM	1.79 µM	43.1 nM	15.7 nM	1.18 µM	26.9 nM	1.68 µM	45.3 nM	1.56 µM	14.6 µM	29.1 µM	< 10 nM	0.393 µM	< 10 nM	1.23 µM	18.7 nM	0.985 µM	1.61 µM
O=C(c1ccccc1)c1ccc(Oc2ccc([N+](=O)[O-])cc2[N+](=O)[O-])cc1	4.12 µM	65.3 µM	8.33 µM	> 100 µM	6740 nM	2390 nM	5.61 µM	3060 nM	15.1 µM	3460 nM	15.9 µM	7.05 µM	29.2 µM	2720 nM	7.34 µM	3250 nM	13.3 µM	5620 nM	49.9 µM	26.7 µM
CCCCCCCCN(CCCCCCCC)CCCCCCNc1cc(OC)cc2cccnc12	10.4 µM	23.4 µM	20.3 µM	36 µM	4750 nM	13200 nM	29.4 µM	3790 nM	13.5 µM	14600 nM	28.4 µM	2.2 µM	5.62 µM	6810 nM	20 µM	11900 nM	27 µM	15300 nM	15.9 µM	29 µM
C=CC(=O)NCc1cccc(Nc2ncc(Br)c(NCCCNC(=O)C3CCC3)n2)c1	7.28 µM and 7.94 µM	12.5 µM and > 25 µM	0.41 µM and 1.86 µM	4.21 µM and 11.6 µM	567 nM and 463 nM	1170 nM and 732 nM	12.5 µM and 15.8 µM	337 nM and 246 nM	4.21 µM and 4.58 µM	1290 nM and 1260 nM	6.16 µM and > 25 µM	2.57 µM and 3.46 µM	12.5 µM and 20.6 µM	806 nM and 861 nM	12.5 µM and > 25 µM	665 nM and 591 nM	12.5 µM and 5.94 µM	113 nM and 83.9 nM	11.6 µM and 1.8 µM	0.637 µM and 1.02 µM
O=[N+]([O-])c1ccccc1N/N=C\c1c[nH]c2ccccc12	8.85 µM	> 100 µM	15 µM	> 72.6 µM	2980 nM	37.9 nM	3.92 µM	8810 nM	> 47.6 µM	18800 nM	> 93.1 µM	26.4 µM	> 100 µM	6100 nM	> 100 µM	10600 nM	24.2 µM	4200 nM	20.5 µM	29.8 µM
O=C1c2nsnc2C(=O)c2c(F)c(F)c(F)c(F)c21	1.63 µM	4.33 µM	0.71 µM	1.92 µM	1380 nM	1520 nM	5.07 µM	494 nM	1.83 µM	1630 nM	3.01 µM	1.61 µM	3 µM	1400 nM	3.29 µM	1380 nM	2.94 µM	1020 nM	2.78 µM	2.21 µM
COc1ccc(C(=O)COC(=O)[C@H](C[Se][Se]C[C@H](NC(=O)c2ccc(Br)cc2F)C(=O)OCC(=O)c2ccc(OC)cc2)NC(=O)c2ccc(Br)cc2F)cc1	0.399 µM	1.39 µM	1.23 µM	3.4 µM	846 nM	820 nM	2.62 µM	914 nM	2.32 µM	433 nM	1.46 µM	2.25 µM	5.31 µM	376 nM	1.55 µM	312 nM	1.07 µM	347 nM	2.77 µM	1.26 µM
C=CC(C1=CC(=O)C(OC)=CC1=O)c1ccccc1 (stereo not drawn)		44.8 µM		32 µM			30.3 µM		31.7 µM		28.4 µM		34.8 µM		34.6 µM		30 µM		19.2 µM	39.1 µM
